Data: patent publication US6030960A, “Method of treating hepatitis virus infections” (priority 1998, dated 2000)
Several values for one entry are separate records, joined by “and”; a condition that tells them apart may be missing. Equal values may be shown once. Read-outs that look alike come from different tables or passages of the source.

Legend:
Type in all cases: cell-based
[1] = Cytotoxicity of alkyl lipids, neutral red dye uptake (Table 1); conditions: human, hep-g2 cells
Text: (§1) Initially, evaluations of the alkyl lipids were done to determine whether the compounds were cytotoxic to the cells at concentrations having anti-HBV activity. The assay methodology is szt forth in Korba and Germ, Antiviral Res., 19, 55-70 (1992), incorporated by reference herein. Briefly, these cell cytotoxicity evaluations were done in 96-well plates seeded with HEP-G2 cell monolayers. The hepatoblastoma cell line HEP-G2 transfected with a plasmid carrying the gene that confers resistance to […] and four 5'-3' tandem copies of the Hepatitis B virus genome was obtained from Dr. George Acs. Proc. Natl. Acad. Sci. USA, 84, 1005-1009 (1987). Serial concentrations of compound were added to the RPMI-1640 growth medium and the growth medium was added to the 96-well plates containing the cell monolayers. The cells were incubated for a total of nine days at 37° C. The compound-containing medium was periodically replaced. Each compound was tested at four serial concentrations in triplicate. After nine days of treatment and incubation, 0.01% neutral red dye (Sigma, Inc.) was added to the overlay medium. Cell cytotoxicity was quantitated by measuring the average A510. Values in Table 1 represent the percentage of average A510 values (±standard deviation) relative to nine non-treated control wells.

[2] = system: Hepatitis B virus; test: Effect on synthesis of antigen markers in persistently infected human HEP G2 cell cultures (Table 7); conditions: for Relative Level of HBeAg / Relative Level of HBsAg / Relative Level of Virion DNA / activity at 10 µM: nine days; for Relative Level of HBeAg / Relative Level of HBsAg / Relative Level of Virion DNA: 12960 min; for activity at 10 µM: Hepatitis B virus, HepG2, 216 h
Procedure: Cells were treated with compound for nine days at 37° C. The overlay medium was harvested to measure levels of HBsAg, HBeAg and virion DNA. HBsAg and HBeAg were assayed by EIA (Abbott Laboratories). Virion DNA levels were measured as described in section B above.

[3] = Cytotoxicity in HBV persistently infected human HEP G2 cells, neutral red dye uptake (Table 5); conditions: human, hep-g2 cells
Text: as §1
(§2) An analysis was periormed to determine the cytotoxicity of the following compounds in human HEP-G2 cells persistently infected with HBV: CP-51, CP-49, CP-9, CP-126, lyso PAF and CP-7. 2'-3'-Dideoxycytidine (ddC) was used as a control in this cytotoxicity analysis. The toxicity analyses were performed in 96-well flat bottomed tissue culture plates following the same procedure set forth in Example 6 above. Each compound was tested at four concentrations, each in triplicate cultures. Uptake of neutral red dye was used to determine the relative level of toxicity. The absorbance of internalized dye at […] (A510) was used for the quantitative analysis.
(§3) Values are presented as a percentage of the average A510 values (± standard deviations) in ninz separate cultures of untreated cells maintained on the same 96-well plate as the test compounds. The percentage of dye uptake in the nine control cultures was 100±1.

[4] = system: HEP G2 cells persistently infected with HBV; test: as above
Text: as §1, §2, §3

[5] = system: Hepatitis B virus; test: Anti-hepatitis B virus activity in HEP-G2 cells persistently infected with HBV (Table 2); conditions: Hepatitis B virus, HepG2, 216 h, 10 μM, 9 days treatment
Procedure: HEP-G2 cells persistently infected with HBV were treated daily with fresh D-MEM containing 20% FBS and 10 μM compound. After 9 days incubation and treatment, the overlay medium was harvested to assay the quantity of Hepatitis B virus s antigen (HBsAg) and HBeAg by EIA (Abbott Laboratories). The overlay medium was diluted to levels of antigen in the linear range of the assay. Standard curves using dilutions of positive HBsAg and HBeAg controls were included in each assay. Virion DNA was assayed using the method set forth in Korba and Gerin, Antiviral Res., 19, 5,5-70 (1992), incorporated by reference herein. HBV DNA was extracted from the overlay medium containing virus particles and analyzed by a slot-blot hybridization technique using ^32 P-labelled 3.2 Kb Eco R1 HBV DNA fragment by comparisons to HBV standards present on nitrocellulose filters using an AMBIS beta scanner. EC90 values (90% effective concentration, i.e., drug concentration which induces a 90% decrease in the levels of HBV DNA replication intermediates in treated versus control cells) were calculated by linear regression analysis. The relative levels of HBsAg, HBeAg and virion DNA were calulated as a percentage of the average levels obtained from the untreated controls.

[6] = system: Hepatitis B virus; test: Effect of alkyl lipids on HBV replication in HBV persistently infected human HEP G2 cells (Table 6); conditions: for Intracellular HBV DNA, Mono (episomal 3.2-3.8 Kb HBV genomes) / Intracellular HBV DNA, RI (replication intermediates): nine days
Procedure: Cells were treated with a particular compound for nine days at 37° C. Analysis of intracellular HEIV DNA was done 24 hours following the ninth day of treatment. […] The levels of integrated HBV DNA in each cellular DNA preparation were used to calculate the levels of episomal 3.2-3.8 Kb HBV genomes (Mono) and HBV DNA replication intermediates (RI). A zero value indicates an undetectable level of HBV virion DNA. The sensitivity cut-off was 0.1 pg DNA/ml of culture medium.

[7] = % of Control Neutral Red Dye Uptake
[8] = 10 μM, Day 9, 0 = undetectable, cut-off 0.1 pg DNA/ml

| SMILES | Relative Level of HBeAg ([2]; 10 μM) | Relative Level of HBsAg ([2]; 10 μM) | Relative Level of Virion DNA ([2]; 10 μM) | HBV Virion DNA ([6]; 0.1 μM, Day 0) | HBV Virion DNA ([6]; 0.1 μM, Day 3) | HBV Virion DNA ([6]; 0.1 μM, Day 6) | HBV Virion DNA ([6]; 0.1 μM, Day 9) | Intracellular HBV DNA, Mono (episomal 3.2-3.8 Kb HBV genomes) ([6]; 0.1 μM) | Intracellular HBV DNA, RI (replication intermediates) ([6]; 0.1 μM) | HBV Virion DNA ([6]; 1 μM, Day 0) | HBV Virion DNA ([6]; 1 μM, Day 3) | HBV Virion DNA ([6]; 1 μM, Day 6) | HBV Virion DNA ([6]; 1 μM, Day 9) | Intracellular HBV DNA, Mono (episomal 3.2-3.8 Kb HBV genomes) ([6]; 1 μM) | Intracellular HBV DNA, RI (replication intermediates) ([6]; 1 μM) | HBV Virion DNA ([6]; 10 μM, Day 0) | HBV Virion DNA ([6]; 10 μM, Day 3) | HBV Virion DNA ([6]; 10 μM, Day 6) | HBV Virion DNA [6, 8] | Intracellular HBV DNA, Mono (episomal 3.2-3.8 Kb HBV genomes) ([6]; 10 μM) | further results |
| --- | --- | --- | --- | --- | --- | --- | --- | --- | --- | --- | --- | --- | --- | --- | --- | --- | --- | --- | --- | --- | --- |
| CCCCCCCCCCCCCCCCSCC(C[N+](C)(C)CCO)OC (racemic) [CP-7, N-[rac-3-(hexadecylthio)-2-methoxy-1-propyl]-N,N-dimethyl-N-(2-hydroxyethyl) ammonium bromide] | 40 % of Untreated Control | 69 % of Untreated Control | 10 % of Untreated Control | 51 pg/ml Culture Medium and 77 pg/ml Culture Medium and 64 pg/ml Culture Medium | 72 pg/ml Culture Medium and 75 pg/ml Culture Medium and 66 pg/ml Culture Medium and 51 pg/ml Culture Medium | 58 pg/ml Culture Medium and 65 pg/ml Culture Medium and 98 pg/ml Culture Medium and 75 pg/ml Culture Medium | 57 pg/ml Culture Medium and 89 pg/ml Culture Medium and 84 pg/ml Culture Medium and 76 pg/ml Culture Medium | 2.5 pg/μg Cell DNA and 2.6 pg/μg Cell DNA and 2.8 pg/μg Cell DNA and 2.3 pg/μg Cell DNA | 73 pg/μg Cell DNA and 62 pg/μg Cell DNA and 57 pg/μg Cell DNA and 76 pg/μg Cell DNA | 53 pg/ml Culture Medium and 64 pg/ml Culture Medium and 54 pg/ml Culture Medium | 56 pg/ml Culture Medium and 51 pg/ml Culture Medium and 66 pg/ml Culture Medium and 58 pg/ml Culture Medium | 46 pg/ml Culture Medium and 52 pg/ml Culture Medium and 59 pg/ml Culture Medium | 48 pg/ml Culture Medium and 44 pg/ml Culture Medium and 49 pg/ml Culture Medium and 41 pg/ml Culture Medium | 2.7 pg/μg Cell DNA and 2.2 pg/μg Cell DNA and 2.3 pg/μg Cell DNA and 2.4 pg/μg Cell DNA | 70 pg/μg Cell DNA and 75 pg/μg Cell DNA and 63 pg/μg Cell DNA and 68 pg/μg Cell DNA | 49 pg/ml Culture Medium and 63 pg/ml Culture Medium and 70 pg/ml Culture Medium and 65 pg/ml Culture Medium | 70 pg/ml Culture Medium and 64 pg/ml Culture Medium and 67 pg/ml Culture Medium and 59 pg/ml Culture Medium | 35 pg/ml Culture Medium and 28 pg/ml Culture Medium and 33 pg/ml Culture Medium | 8 pg/ml Culture Medium and 9 pg/ml Culture Medium and 7 pg/ml Culture Medium | 2.3 pg/μg Cell DNA and 2.6 pg/μg Cell DNA and 2.5 pg/μg Cell DNA | cytotoxicity at 216 h, 30 µM [1]: 33%; viability at 216 h, 3 µM [1]: 98 ± 2%; viability at 216 h, 10 µM [1]: 102 ± 6%; viability at 216 h, 30 µM [1]: 67 ± 3%; viability at 216 h, 100 µM [1]: 24 ± 2%; activity at 10 µM ([2]; 10 μM, read-out: Relative Level of HBeAg): 46%; activity at 10 µM ([2]; 10 μM, read-out: Relative Level of HBsAg): 79%; activity at 10 µM ([2]; 10 μM, read-out: Relative Level of Virion DNA): 9%; viability at 216 h, 3 µM [3, 7]: 98 ± 2%; viability at 216 h, 10 µM [3, 7]: 102 ± 6%; viability at 216 h, 30 µM [3, 7]: 67 ± 3%; viability at 216 h, 100 µM [3, 7]: 24 ± 2%; Cell toxicity (greater than 50% depression of dye uptake) [4]: did not occur; activity at 10 µM ([5]; read-out: Relative Level of HBeAg): 43%; activity at 10 µM ([5]; read-out: Relative Level of HBsAg): 74%; activity at 10 µM ([5]; read-out: Relative Level of Virion DNA): 10%; Intracellular HBV DNA, RI (replication intermediates) ([6]; 10 μM): 11 pg/μg Cell DNA and 13 pg/μg Cell DNA and 10 pg/μg Cell DNA and 14 pg/μg Cell DNA |
| CCCCCCCCCCCCOCC(COP(=O)(O)OC[C@H]1O[C@@H](n2cc(C)c(=O)[nH]c2=O)C[C@@H]1N=[N+]=[N-])OCCCCCCCCCC (mixture of isomers) [CP-126, 3'-Azido-3'-deoxy-5'-(rac-3-dodecyloxy-2-decyloxy-1-propyl) phosphothymidine] | 42 % of Untreated Control | 69 % of Untreated Control | 14 % of Untreated Control | 50 pg/ml Culture Medium and 52 pg/ml Culture Medium and 54 pg/ml Culture Medium and 60 pg/ml Culture Medium | 77 pg/ml Culture Medium and 79 pg/ml Culture Medium and 67 pg/ml Culture Medium and 65 pg/ml Culture Medium | 61 pg/ml Culture Medium and 72 pg/ml Culture Medium and 83 pg/ml Culture Medium and 66 pg/ml Culture Medium | 78 pg/ml Culture Medium and 64 pg/ml Culture Medium and 82 pg/ml Culture Medium and 77 pg/ml Culture Medium | 2.2 pg/μg Cell DNA and 2.6 pg/μg Cell DNA and 2.4 pg/μg Cell DNA | 64 pg/μg Cell DNA and 54 pg/μg Cell DNA and 70 pg/μg Cell DNA and 89 pg/μg Cell DNA | 67 pg/ml Culture Medium and 54 pg/ml Culture Medium and 70 pg/ml Culture Medium and 69 pg/ml Culture Medium | 49 pg/ml Culture Medium and 57 pg/ml Culture Medium and 65 pg/ml Culture Medium and 53 pg/ml Culture Medium | 40 pg/ml Culture Medium and 39 pg/ml Culture Medium and 44 pg/ml Culture Medium and 48 pg/ml Culture Medium | 28 pg/ml Culture Medium and 20 pg/ml Culture Medium and 22 pg/ml Culture Medium and 26 pg/ml Culture Medium | 2.3 pg/μg Cell DNA and 2.7 pg/μg Cell DNA and 2.1 pg/μg Cell DNA and 1.8 pg/μg Cell DNA | 51 pg/μg Cell DNA and 67 pg/μg Cell DNA and 56 pg/μg Cell DNA and 61 pg/μg Cell DNA | 60 pg/ml Culture Medium and 62 pg/ml Culture Medium and 59 pg/ml Culture Medium and 51 pg/ml Culture Medium | 59 pg/ml Culture Medium and 50 pg/ml Culture Medium and 55 pg/ml Culture Medium and 66 pg/ml Culture Medium | 20 pg/ml Culture Medium and 21 pg/ml Culture Medium and 26 pg/ml Culture Medium and 29 pg/ml Culture Medium | 13 pg/ml Culture Medium and 8 pg/ml Culture Medium and 9 pg/ml Culture Medium and 12 pg/ml Culture Medium | 1.9 pg/μg Cell DNA and 2.5 pg/μg Cell DNA and 2.0 pg/μg Cell DNA and 2.3 pg/μg Cell DNA | activity at 10 µM ([2]; read-out: Relative Level of HBeAg, 10 μM): 35%; activity at 10 µM ([2]; read-out: Relative Level of HBsAg, 10 μM): 65%; activity at 10 µM ([2]; read-out: Relative Level of Virion DNA, 10 μM): 10%; effect on HBsAg levels released into the culture medium ([2]; in words): None of the compounds tested; reduction in HBeAg and virion DNA levels ([2]; in words): caused a reduction; viability at 216 h, 3 µM ([3]; Trial 2, 3 μM, read-out: % of Control Neutral Red Dye Uptake): 100 ± 1%; viability at 216 h, 10 µM ([3]; Trial 2, 10 μM, read-out: % of Control Neutral Red Dye Uptake): 97 ± 3%; viability at 216 h, 30 µM ([3]; Trial 2, 30 μM, read-out: % of Control Neutral Red Dye Uptake): 68 ± 1%; viability at 216 h, 100 µM ([3]; Trial 2, 100 μM, read-out: % of Control Neutral Red Dye Uptake): 20 ± 2%; Cell toxicity (greater than 50% depression of dye uptake) ([4]; at concentrations with strong or moderate antiviral activity): did not occur; Intracellular HBV DNA, RI (replication intermediates) ([6]; 10 μM): 14 pg/μg Cell DNA and 9 pg/μg Cell DNA and 12 pg/μg Cell DNA and 16 pg/μg Cell DNA; inhibition of HBV replication ([6]; in words): moderately inhibitory of HBV replication |
